# Like-named read-outs stand apart in the source and are kept apart here.
# Legend:
# KRAS-WT = KRAS-WT (Homo sapiens, UniProt P01116); test: SOS-catalyzed nucleotide exchange assay (Procedure A, TR-FRET), KRAS-WT; assay type: biochemical; conditions: nucleotide exchange, read-out: KRAS WT GNE IC50
# Outline: (§1)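 Signal ratio (520/495 nm, excitation 340 nm) reports Bodipy-GDP retention on biotinylated RAS after SOS-catalyzed exchange with 3 mM GTP. SOS was 40 nM, except 160 nM for G12V. Room-temperature exchange lasted 60 min (90 min for G12V), following a 60 min compound preincubation.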
# [1] = target: KRAS-G12C (C51S/C80L/C118S) (Homo sapiens, UniProt P01116, C118S/C51S/C80L/G12C); test: SOS-catalyzed nucleotide exchange assay (Procedure A, TR-FRET), KRAS-G12C; assay type: biochemical; conditions: nucleotide exchange, Procedure A; read-out: KRAS G12C GNE IC50
# Chain of KRAS-G12C (C51S/C80L/C118S) (P01116 with tags, fused parts or gaps isoform P01116-2 G12C/C51S/C80L/C118S): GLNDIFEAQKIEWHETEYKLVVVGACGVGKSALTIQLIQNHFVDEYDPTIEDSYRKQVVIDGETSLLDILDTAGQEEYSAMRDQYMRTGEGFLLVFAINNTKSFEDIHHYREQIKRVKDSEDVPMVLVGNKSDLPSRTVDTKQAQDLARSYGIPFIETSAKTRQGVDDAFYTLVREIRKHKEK
# Outline: as §1
# KRAS-G12D = KRAS-G12D (Homo sapiens, UniProt P01116, G12D); test: SOS-catalyzed nucleotide exchange assay (Procedure A, TR-FRET), KRAS-G12D; assay type: biochemical; conditions: nucleotide exchange, read-out: KRAS G12D GNE IC50
# Chain of KRAS-G12D (P01116 with tags, fused parts or gaps isoform P01116-2 G12D): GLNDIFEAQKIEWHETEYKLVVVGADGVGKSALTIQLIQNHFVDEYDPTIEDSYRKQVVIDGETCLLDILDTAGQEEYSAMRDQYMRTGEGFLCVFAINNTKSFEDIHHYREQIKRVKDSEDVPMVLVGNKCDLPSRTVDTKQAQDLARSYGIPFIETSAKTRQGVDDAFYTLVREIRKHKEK
# Outline: as §1
# KRAS-G12V = KRAS-G12V (Homo sapiens, UniProt P01116, G12V); test: SOS-catalyzed nucleotide exchange assay (Procedure A, TR-FRET), KRAS-G12V; assay type: biochemical; conditions: nucleotide exchange, read-out: KRAS G12V GNE IC50
# Chain of KRAS-G12V (P01116 with tags, fused parts or gaps isoform P01116-2 G12V): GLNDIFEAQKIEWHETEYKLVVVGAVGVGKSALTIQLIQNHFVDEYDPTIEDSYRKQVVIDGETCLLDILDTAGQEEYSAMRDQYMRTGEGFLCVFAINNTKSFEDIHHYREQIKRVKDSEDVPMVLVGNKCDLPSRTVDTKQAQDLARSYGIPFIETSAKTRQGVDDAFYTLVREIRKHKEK
# Outline: as §1
# KRAS-G13D = KRAS-G13D (Homo sapiens, UniProt P01116, G13D); test: SOS-catalyzed nucleotide exchange assay (Procedure A, TR-FRET), KRAS-G13D; assay type: biochemical; conditions: nucleotide exchange, Procedure A; read-out: KRAS G13D GNE IC50
# Chain of KRAS-G13D (P01116 with tags, fused parts or gaps isoform P01116-2 G13D): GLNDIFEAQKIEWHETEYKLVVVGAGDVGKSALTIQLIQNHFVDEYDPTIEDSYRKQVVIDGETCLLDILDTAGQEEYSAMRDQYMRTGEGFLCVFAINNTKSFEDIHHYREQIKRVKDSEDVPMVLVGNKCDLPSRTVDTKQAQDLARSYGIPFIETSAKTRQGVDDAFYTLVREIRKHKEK
# PANC08.13 cells = test: Cellular phospho-ERK assay, PANC08.13 cells (homozygous KRAS-G12D); assay type: cell-based; conditions: Homo sapiens, read-out: PANC-08.13 pERK IC50
# Protocol: Procedure for Cellular Phospho-ERK Assay in KRAS Wild Type and Mutant (G12D, G12V) Cell Lines
# MKN-1 cells (JCRB JCRB0252) containing amplified wild-type KRAS, were cultured in growth medium that contains RPMI 1640-GlutaMAX™-I (ThermoFisher Scientific 61870) containing 10% heat inactivated fetal bovine serum (ThermoFisher Scientific 10091148), 1 mM sodium pyruvate and 10 mM HEPES. PANC08.13 cells (ATCC® CRL-2551™), containing homozygous KRAS-G12D activating mutation, were cultured in growth medium made of RPMI1640-GlutaMAX™-I (ThermoFisher Scientific 61870) containing 15% heat inactivated fetal bovine serum (ThermoFisher Scientific 10091148)). AsPC-1 cells (ATCC® CRL-1682™), containing homozygous KRAS-G12D activating mutation, were cultured in T150 flask in growth medium (RPMI medium 1640-GlutaMAX™-I (ThermoFisher Scientific 61870) containing 10% fetal bovine serum (ThermoFisher Scientific 10091148)). SW620 cells (ATCC® […]), containing homozygous KRAS-G12V activating mutation, were cultured in growth medium that contains RPMI 1640-GlutaMAX™-I (ThermoFisher Scientific 61870) containing 10% heat inactivated fetal bovine serum (ThermoFisher Scientific 10091148).
# Cells for the assay were harvested in growth medium after TrypLE (ThermoFisher scientific 12604021) digestion and were seeded in a 384-well collagen coated cell culture plate (Corning 356702) at a density of 10,000-15,000 cells/20 μL/well, and incubated at 37° C., 5% CO2 overnight. The compound (with 10 mM stock concentration) dose-response titrations were prepared [30 μM final ERK detection assay concentration and 1:3 dilutions, 10-point dose response] and appropriate amounts (270 nL) of test compounds were dispensed in a 384-well intermediate plate using an Echo 550 liquid handler. 30 μL/well of RPMI medium 1640-GlutaMAX™—I was added to the intermediate plate and the contents of the intermediate plate (10 μL/well) were then transferred to the 384-well collagen coated cell culture plate, which was incubated at 37° C., 5% CO2 for 2 hours. After removal of medium from the collagen coated cell culture plate, cells were lysed in lysis buffer from Alpha SureFire® Ultra™ Multiplex p-ERK and total ERK assay kit (PerkinElmer MPSU-PTERK) containing Halt™ Protease and Phosphatase inhibitor cocktail (ThermoFisher Scientific 78446) at room temperature with constant shaking at 300 rpm for 30 minutes. The cell lysates were then transferred to an OptiPlate-384 plate (PerkinElmer 6005620), and the phosphorylation of ERK (p-ERK) and total ERK levels were detected by Alpha SureFire® Ultra™ Multiplex p-EEK kit and total ERK assay kit (PerkinElmer MPSU-PTERK) following the manufacturer's protocol. Assay plates were read on a En Vision Multimode Plate Reader (PerkinElmer), and the ratio of p-ERK vs. total ERK in each well was used as the final readout. Dose response curves were analyzed using a 4-parameter logistic model to calculate IC50 values using Spotfire software.
# AsPC-1 cells = test: Cellular phospho-ERK assay, AsPC-1 cells (homozygous KRAS-G12D); assay type: cell-based; conditions: Homo sapiens, ASPC1, 2 h, read-out: AsPC1 pERK IC50
# Outline: (§2)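 ERK phosphorylation relative to total ERK is the endpoint, detected by AlphaScreen-based SureFire multiplex following a 2-hour treatment at 37 °C. Compounds are titrated 1:3 over ten points from 30 μM.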
# MKN-1 cells = test: Cellular phospho-ERK assay, MKN-1 cells (amplified wild-type KRAS); assay type: cell-based; conditions: Homo sapiens, read-out: MKN1 pERK IC50
# Outline: as §2
# SW620 cells = test: Cellular phospho-ERK assay, SW620 cells (homozygous KRAS-G12V); assay type: cell-based; conditions: Homo sapiens, read-out: SW620 pERK IC50
# Outline: as §2
# [2] = amplified wild-type KRAS, 2 hours
# [3] = SW-620, 2 hours compound incubation
# Chain of KRAS-WT (P01116 with tags, fused parts or gaps isoform P01116-2): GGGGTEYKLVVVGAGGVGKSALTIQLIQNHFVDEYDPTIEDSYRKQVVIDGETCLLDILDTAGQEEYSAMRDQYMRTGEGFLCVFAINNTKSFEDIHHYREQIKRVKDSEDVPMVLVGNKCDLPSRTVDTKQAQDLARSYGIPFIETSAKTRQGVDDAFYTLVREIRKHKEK
Structure (SMILES),IC50 [1] [nM],"IC50 (PANC08.13 cells; PANC-08-13, 2 hours compound incubation) [nM]","IC50 (PANC08.13 cells; PANC-08-13, KRAS-G12D, 2 hours) [nM]",IC50 (MKN-1 cells; 2 hours compound incubation) [nM],IC50 (AsPC-1 cells; 2 hours compound incubation) [nM],IC50 (SW620 cells; [3]) [nM],IC50 (KRAS-WT) [nM],IC50 (KRAS-G12D) [nM],IC50 (KRAS-G12V) [nM],IC50 (KRAS-G13D) [nM],"IC50 (AsPC-1 cells; KRAS-G12D, 2 hours) [nM]",IC50 (MKN-1 cells; [2]) [nM],"IC50 (SW620 cells; SW-620, KRAS-G12V, 2 hours) [nM]"
"Cc1cc2[nH]ncc2c(-c2nccc3c4c(N5CCOC[C@@](C)(O)C5)nc(OC[C@]5(CN(C)C)CC5(F)F)nc4n(C)c23)c1C(F)(F)F [Ex-20, (6S)-4-(2-(((R)-1-((dimethylamino)methyl)-2,2-difluorocyclopropyl)methoxy)-9-methyl-8-(6-methyl-5-(trifluoromethyl)-1H-indazol-4-yl)-9H-pyrido[4′,3′:4,5]pyrrolo[2,3-d]pyrimidin-4-yl)-6-methyl-1,4-oxazepan-6-ol]",,,80.6,,,,125,37.9,62.9,,,150,539
C=C(C)c1c(C)cc2[nH]ncc2c1-c1nncc2c1sc1nc(OC[C@@]34CCCN3C[C@H](F)C4)nc(N3CCOC[C@@](C)(O)C3)c12 [Ex-278],74.9,,,,,,46,14.6,30.4,20.3,364,98.2,103
"Cc1cc2[nH]ncc2c(-c2nncc3c2sc2nc(OC[C@@]45CCCN4C[C@H](F)C5)nc(N4CCOC[C@@](C)(O)C4)c23)c1C1CC1 [Ex-279, (6S)-4-(8-(5-cyclopropyl-6-methyl-1H-indazol-4-yl)-2-(((2R,7aS)-2-fluorotetrahydro-1H-pyrrolizin-7a(5H)-yl)methoxy)pyrimi-do[5′,4′:4,5]thieno[2,3-d]pyridazin-4-yl)-6-methyl-1,4-oxazepan-6-ol]",97.6,,,,,,13.6,5.15,16,7.59,114,43,99.8
"C[C@@]1(O)COCCN(c2nc(OC[C@@]34CCCN3C[C@H](F)C4)nc3sc4c(-c5c(C6(F)CC6)c(Cl)cc6[nH]ncc56)nccc4c23)C1 [Ex-52, (6S)-4-(8-(6-chloro-5-(1-fluorocyclopropyl)-1H-indazol-4-yl)-2-(((2R,7aS)-2-fluorotetrahydro-1H-pyrrolizin-7a(5H)-yl)methoxy)pyrido[4′,3′-4,5]thi-eno[2,3-d]pyrimidin-4-yl)-6-methyl-1,4-oxazepan-6-ol]",30.1,,,,,,11.9,4.05,12.9,9.02,68.7,48.6,37.3
"Cc1cc2[nH]ncc2c(-c2nccc3c2sc2nc(OC[C@@]45CCCN4C[C@H](F)C5)nc(N4CCOC[C@@](C)(O)C4)c23)c1C12CC(C1)C2 [Ex-43, (6S)-4-(8-(5-(bicyclo[1.1.1]pentan-1 yl)-6-methy1-1H-indazol-4-yl)-2-(((2R,7aS)-2-fluorotetrahydro-1H-pyrrolizin-7a(5H)-yl)methoxy)pyrido[4′,3′:4,5]thi-eno[2,3-d]pyrimidin-4-yl)-6-methyl-1,4-oxazepan-6-ol]",24.3,,,,,,44.4,13.9,26.8,17.5,130,145,62

# Now from value to compound, other results behind:
IC50 [1] [nM],"IC50 (PANC08.13 cells; PANC-08-13, 2 hours compound incubation) [nM]","IC50 (PANC08.13 cells; PANC-08-13, KRAS-G12D, 2 hours) [nM]",IC50 (MKN-1 cells; 2 hours compound incubation) [nM],IC50 (AsPC-1 cells; 2 hours compound incubation) [nM],IC50 (SW620 cells; [3]) [nM],Structure (SMILES),IC50 (KRAS-WT) [nM],IC50 (KRAS-G12D) [nM],IC50 (KRAS-G12V) [nM],IC50 (KRAS-G13D) [nM],"IC50 (AsPC-1 cells; KRAS-G12D, 2 hours) [nM]",IC50 (MKN-1 cells; [2]) [nM],"IC50 (SW620 cells; SW-620, KRAS-G12V, 2 hours) [nM]"
241,1700,,,,,"C#Cc1c(F)ccc2nc(N)cc(-c3nccc4c3sc3nc(OC[C@@]56CCCN5C[C@H](F)C6)nc(N5CCOC[C@@](C)(O)C5)c34)c12 [Ex-178, (S)-4-(8-(2-amino-5-ethynyl-6-fluoroquinolin-4-yl)-2-(((2R,7aS)-2-fluorotetrahydro-1H-pyrrolizin-7a(5H)-yl)methoxy)pyrido[4′,3′: 4.5]thieno[2,3-d]pyrimidin-4-yl)-6-methyl-1,4-oxazepan-6-ol]",1280,906,657,1060,,,
275,,2040,,,,"Cc1cc2c3c(N4CCOC[C@@](C)(O)C4)nc(OC[C@@]45CCCN4C[C@H](F)C5)nc3n(C)c2c(-c2c(C(F)(F)F)c(C)cc3[nH]ncc23)n1 (single isomer, unassigned) [Ex-28]",973,629,934,541,,,
25.3,,1860,,,,"Cc1cc2[nH]ncc2c(-c2nccc3c4c(N5CCCC6(CC(=O)N6)C5)nc(OC[C@@]56CCCN5C[C@H](F)C6)nc4n(C)c23)c1C(F)(F)F (single isomer, unassigned) [Ex-21]",455,59,34.4,,3260,,
44.3,,,155,119,120,"CC(C)c1c(Cl)cc2[nH]ncc2c1-c1nccc2c1sc1nc(OC[C@@]34CCCN3C[C@H](F)C4)nc(N3CCOC[C@@](C)(O)C3)c12 [Ex-145, (6S)-4-(8-(6-chloro-5-isopropyl-1H-ind-azol-4-yl)-2-(((2R, 7aS)-2-fluorotetra-hydro-1H-pyrrol-izin-7a(5H)-yl)meth-oxy)pyrido[4′,3′:4,5]thieno[2,3-d]pyr-imidin-4-yl)-6-meth-yl-1,4-oxazepan-6-ol]",58.9,34.3,73.2,27.8,,,
87.7,,,53.1,38,131,"Cc1cc2[nH]ncc2c(-c2nccc3c2sc2nc(OC[C@@]45CCCN4C[C@H](F)C5)nc(N4CCOC[C@@](C)(O)C4)c23)c1C1CC1 [Ex-141, (6S)-4-(8-(5-cyclo-propyl-6-methyl-1H-indazol-4-yl)-2-(((2R,7aS)-2-fluoro-tetrahydro-1H-pyr-rolizin-7a(5H)-yl)-methoxy)pyrido [4′,3′:4,5]thieno[2,3-d]pyrimidin-4-yl)-6-methyl-1,4-oxaze-pan-6-ol]",18.1,7.5,16.5,14.4,,,

# From US20260176289A1, “SMALL MOLECULE INHIBITORS OF KRAS PROTEINS” (Merck Sharp & Dohme LLC, priority 2022, published 2026)
